Assay results reported in article PMC3779320, “Bub3 reads phosphorylated MELT repeats to promote spindle assembly checkpoint signaling” (eLife, 2013).
Square brackets hold non-standard residues; d marks the D form. Peptide text beside a SMILES is read from it. pT = C[C@@H](OP(=O)(O)O)[C@H](N)C(=O)O

Tests used:
[1] = tested on: Bub1^289–359–Bub3^R217A–R239A; experiment: ITC binding to Bub1^289–359–Bub3^R217A–R239A double mutant; set-up: species or system Saccharomyces cerevisiae; conditions: 25°C, 20 mM Tris pH7.5, 150 mM NaCl, 1 mM DTE, complex 30 µM in cell, peptide 400 µM
From the text: Because the presence of a phosphate on Thr172^Spc105/Knl1 is essential for high-affinity binding of ScBub1^289–359–Bub3 to MELT^P peptides (Figure 1), we concentrated our mutational analysis on two residues that are directly implicated in the recognition of the peptide’s phospho-threonine, Arg217^Bub3 and Arg239^Bub3. Positively charged residues are invariant at these positions of the Bub3 alignment (Figure 2C). We generated single or double alanine mutants of Arg217^Bub3 and Arg239^Bub3 in the context of ScBub1^289–359–Bub3 and tested their binding affinity for the MELT2^P peptide by ITC.
cDNA sequences coding for S. cerevisiae Bub1^289–359 and for full length Bub3 were subcloned in the first and second cassettes of pGEX-6P-2rbs vector ([Ciferri et al., 2005]). In this construct, the cDNA encoding Bub1^289–359 was sub-cloned in frame with the gene encoding GST and a cleavage site for PreScission protease, and was translated from the first ribosome-binding site (rbs). Untagged Bub3 was subcloned downstream of the second rbs in the same vector. Expression was carried out in BL21 DE3 plysS cells in LB medium by auto-induction with 0.3% lactose at 18°C for approximately 16 hr. […]
(§1) Binding isotherm was measured at 25°C by isothermal titration calorimetry on a MicroCal ITC200 device (GE Healthcare, Piscataway, NJ). […]

[2] = target: T1, Bub1^289–359–Bub3 (Saccharomyces cerevisiae, UniProt P26449+P41695); experiment: ITC binding of MELT peptides to Bub1^289–359–Bub3 (wild type); conditions: 25°C, 20 mM Tris pH7.5, 150 mM NaCl, 1 mM DTE, complex 30 µM in cell, peptide 400 µM
T1 construct: S. cerevisiae Bub1^289–359 and for full length Bub3; GST (N, cleaved yes); made in house; host or cells: E. coli BL21 DE3 plysS
T1 sequence (P26449 1-341): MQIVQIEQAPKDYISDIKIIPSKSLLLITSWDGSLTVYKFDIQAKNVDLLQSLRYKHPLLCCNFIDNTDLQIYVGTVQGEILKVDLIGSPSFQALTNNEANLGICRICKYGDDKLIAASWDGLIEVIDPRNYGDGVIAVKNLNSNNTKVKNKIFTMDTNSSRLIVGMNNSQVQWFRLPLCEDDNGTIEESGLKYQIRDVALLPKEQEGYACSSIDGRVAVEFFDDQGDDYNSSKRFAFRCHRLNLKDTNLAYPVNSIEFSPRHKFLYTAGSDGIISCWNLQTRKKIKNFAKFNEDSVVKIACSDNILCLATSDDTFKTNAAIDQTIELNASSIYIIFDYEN
T1 sequence (P41695 289-359): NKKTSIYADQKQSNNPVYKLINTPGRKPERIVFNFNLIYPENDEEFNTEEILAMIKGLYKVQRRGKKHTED
From the text: We generated recombinant ScBub1^289–359–Bub3 (where the Bub1 segment is equivalent to the minimal kinetochore targeting region of human Bub1 [[Krenn et al., 2012]]) by bacterial co-expression and purified it to homogeneity (Figure 1D). To assess whether Bub1–Bub3 binds directly to MELT^P sequences, we tested its ability to bind MELT sequences in quantitative isothermal titration calorimetry (ITC) binding experiments. 19-residue synthetic peptides encompassing the sequences of the second and fourth MELT^P motifs of Spc105/Knl1 (indicated as MELT2 and MELT4, respectively), each flanked by four and eleven residues on the N- and C-terminal ends, respectively, were tested (Figure 1C). […] Thus, ScBub1^289–359–Bub3 is sufficient for the reconstitution of tight interactions with two MELT^P peptides in vitro that recapitulate a salient feature of this interaction, its dependency on phosphorylation.
cDNA sequences coding for S. cerevisiae Bub1^289–359 and for full length Bub3 were subcloned in the first and second cassettes of pGEX-6P-2rbs vector ([Ciferri et al., 2005]). In this construct, the cDNA encoding Bub1^289–359 was sub-cloned in frame with the gene encoding GST and a cleavage site for PreScission protease, and was translated from the first ribosome-binding site (rbs). Untagged Bub3 was subcloned downstream of the second rbs in the same vector. Expression was carried out in BL21 DE3 plysS cells in LB medium by auto-induction with 0.3% lactose at 18°C for approximately 16 hr. Cells were harvested by centrifugation and resuspended in Buffer A (20 mM Tris pH 7.5, 300 mM NaCl, 10% Glycerol, 1 mM DTE, 1 mM EDTA pH 8.0, 1 mM PMSF) typically at a dilution of 3 ml lysis buffer per ml of bacterial pellet. Cells were lysed by sonication, and the lysates were cleared by centrifugation at 75000 × g for 45 min. The resulting clear supernatant was incubated with gentle rotation with 1/50 (vol/vol) of GSH-sepharose slurry (GE Healthcare) for 1–2 hr at 4°C. Beads were washed with 150 vol of Buffer A. To elute the Bub1–Bub3 complex from beads, GST-PreScission protease (0.02 mg/mg of protein target) was added for 16 hr at 4°C. The eluate was concentrated on Amicon Ultra Centrifugal Filters MwCO 3000 (Merck Millipore, Billerica, MA) and further purified by size exclusion chromatography (SEC) on a Superdex 75 16/60 column using GF buffer (20 mM Tris pH 7.5, 150 mM NaCl, 1 mM DTE). The complex eluted in a single peak with apparently stoichiometric amounts of Bub1^289–359 and Bub3 and was subsequently concentrated to ∼10 mg/ml for crystallization or to 2–4 mg/ml for ITC experiments. […]
as §1

With CC[C@H](C)[C@H](NC(=O)[C@H](CO)NC(=O)[C@H](CCCNC(=N)N)NC(=O)[C@@H]1CCCN1C(=O)[C@H](Cc1ccccc1)NC(=O)[C@@H](NC(=O)[C@H](CCC(=O)O)NC(=O)[C@@H](NC(=O)[C@H](CCSC)NC(=O)[C@H](CCC(=O)O)NC(=O)[C@H](CCSC)NC(=O)[C@H](CO)NC(=O)[C@@H](NC(=O)[C@@H]1CCCN1C(=O)[C@H](CC(=O)O)NC(C)=O)[C@@H](C)O)[C@@H](C)OP(=O)(O)O)C(C)C)C(=O)N[C@@H](CCCNC(=N)N)C(=O)N[C@@H](CCC(N)=O)C(=O)N[C@@H](CCCCN)C(=O)N[C@@H](CC(N)=O)C(N)=O [MELT2^P] (Ac-DPTSMEM[pT]EVFPRSIRQKN-NH2; N-terminus and C-terminus assumed) the “binding (in words)” value [1] was “no significant residual binding” and the “binding (in words)” value [2] was “no binding”.
